Molecular target: muscarinic receptor
Assay: not given
Settings: high affinity site; muscarinic receptor in the CNS; read-out: affinity of 3H-Oxo, first of three labeled sites; cited from earlier work
For `C[N+](C)(C)CC#CCN1CCCC1=O` [3 H-Oxo], the Kd is given as 0.0018 µM.

Same assay, conditions: medium affinity site; muscarinic receptor in the CNS; read-out: affinity of 3H-Oxo, second of three labeled sites; cited from earlier work
For `C[N+](C)(C)CC#CCN1CCCC1=O` [3 H-Oxo], the Kd is given as 0.02 µM.

Same assay, conditions: third site, not determined under the present conditions; muscarinic receptor in the CNS; read-out: affinity of 3H-Oxo, third of three labeled sites; cited from earlier work
For `C[N+](C)(C)CC#CCN1CCCC1=O` [3 H-Oxo], the Kd is listed as 3 µM.

Molecular target: T1, human m4 receptors (Homo sapiens, UniProt P08173)
T1 construct: expressed in transfected cells; host or cells: CHO K1
T1 sequence (P08173 whole entry): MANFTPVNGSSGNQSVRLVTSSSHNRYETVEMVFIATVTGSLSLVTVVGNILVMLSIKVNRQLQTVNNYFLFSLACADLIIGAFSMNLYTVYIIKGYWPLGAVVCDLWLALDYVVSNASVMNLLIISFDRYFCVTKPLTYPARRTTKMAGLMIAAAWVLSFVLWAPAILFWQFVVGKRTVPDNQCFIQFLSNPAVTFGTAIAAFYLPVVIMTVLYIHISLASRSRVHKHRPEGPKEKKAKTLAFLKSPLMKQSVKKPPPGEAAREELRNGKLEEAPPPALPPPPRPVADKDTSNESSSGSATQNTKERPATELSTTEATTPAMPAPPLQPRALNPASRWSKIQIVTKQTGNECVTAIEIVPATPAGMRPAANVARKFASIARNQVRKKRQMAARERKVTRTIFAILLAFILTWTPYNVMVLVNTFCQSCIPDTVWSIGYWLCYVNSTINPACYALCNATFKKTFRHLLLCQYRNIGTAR
Assay: M4 assay: cyclic AMP accumulation/production in pertussis toxin-treated CHO m4 cells (% maximum stimulation compared to oxotremorine-M)
Type: cell-based
Settings: read-out: % Maximum Stimulation Compared to Oxotremorine-M
Protocol: II. M4 muscarinic receptor […] assay:
Cyclic AMP Accumulation in Pertussis Toxin-Treated CHO m4 Cells.
CHO K1 cells transfected with human m4 receptors were grown to near confluency in T-150 flasks using Dulbecco's Modified Eagle Medium (DMEM) containing 10% fetal bovine serum. Cells were detached with 0.05% trypsin, 0.53 mM EDTA, and were suspended in medium containing 100 ng/ml pertussis toxin. Cells were plated at 30,000 cells per well into 96 well plates. Eighteen to twenty hours later the medium was removed and the cells were washed with serum-free medium. Attached cells were incubated at 37_C for one hour after addition of […] of serum free DMEM containing 1 mM 3-isobutyl-1-methylxanthine and 1 mM forskolin plus or minus drugs being tested. Incubations were terminated with […] per well of serum free DMEM containing 0.3%, triton-X-100. After stopping incubations the plates were allowed to sit for 20 minutes to extract cAMP and samples were then diluted 2.5-fold and were assayed using the scintillation proximity assay of Amersham (Arlington Heights, Ill.).
Representative results from the M4 assay are as follows:
Stimulation of cyclic AMP Production in CHO-m4 cells.
Work on `O=C(N[C@H]1c2cc(N=CN3CCCC3)ccc2C[C@@H]1O)c1cccc(Cl)c1Cl` (relative stereo) [Compound 31] yielded an Emax of 45%.
Work on `CN(C)C=Nc1ccc2c(c1)[C@@H](NC(=O)c1sccc1Cl)[C@H](O)C2` (relative stereo) [Compound 68] yielded an Emax of 0%.
In the case of `O=C(N[C@@H]1c2cc(N=CN3CCCC3)ccc2C[C@H]1O)c1c(Cl)cc(Cl)cc1Cl` (relative stereo) [Compound 47], the Emax is reported as < 20%.
Molecule `O=C(N[C@H]1c2cc(N=CN3CCCC3)ccc2C[C@@H]1O)c1ccccc1C(F)(F)F` (relative stereo) [Compound 35] has an Emax of 65%.
In the case of `O=C(N[C@H]1c2cc(N=CN3CCCC3)ccc2C[C@@H]1O)c1cccc(F)c1` (relative stereo) [Compound 30], the Emax is reported as < 20%.
In the case of `O=C(CSc1ccccc1)N[C@H]1c2cc(N=CN3CCCC3)ccc2C[C@@H]1O` (relative stereo) [Compound 28], the Emax is reported as < 20%.
`O=C(N[C@H]1c2cc(N=CN3CCCC3)ccc2C[C@@H]1O)c1cccs1` (relative stereo) [Compound 21] showed an Emax of 23%.
With `O=C(N[C@H]1c2cc(N=CN3CCCC3)ccc2C[C@@H]1O)c1cccc(F)c1F` (relative stereo) [Compound 24] the Emax was 22%.
Work on `CN(C)C=Nc1ccc2c(c1)[C@@H](NC(=O)c1cc(Cl)cc(Cl)c1)[C@H](O)C2` (relative stereo) [Compound 58] yielded an Emax of 74%.
In the case of `CN(C)C=Nc1ccc2c(c1)[C@@H](NC(=O)C(F)(F)F)[C@H](O)C2` (relative stereo) [Compound 66], the Emax is reported as 0%.
With `O=C(N[C@H]1c2cc(N=CN3CCCC3)ccc2C[C@@H]1O)c1c(F)ccc(F)c1F` (relative stereo) [Compound 29] the Emax was < 20%.
Molecule `O=C(N[C@H]1c2cc(N=CN3CCCC3)ccc2C[C@@H]1O)c1cc(Cl)cc(Cl)c1` (relative stereo) [Compound 14] has an Emax of 100%.
With `O=C(N[C@H]1c2cc(N=CN3CCCC3)ccc2C[C@@H]1O)c1cc(F)c(F)c(F)c1` (relative stereo) [Compound 39] the Emax was 43%.
`CN(C)C=Nc1ccc2c(c1)[C@@H](NC(=O)c1ccc3ccccc3c1)[C@H](O)C2` (relative stereo) [Compound 63] gave an Emax of 13%.
Molecule `O=C(N[C@@H]1c2cc(N=CN3CCCC3)ccc2C[C@H]1O)c1ccccc1Cl` (relative stereo) [Compound 44] has an Emax of 41%.
For `CN(C)C=Nc1ccc2c(c1)[C@@H](NC(=O)C1CCCC1)[C@H](O)C2` (relative stereo) [Compound 62], the Emax was 27%.
Work on `CN(C)C=Nc1ccc2c(c1)[C@@H](NC(=O)c1cc(F)c(F)c(F)c1)[C@H](O)C2` (relative stereo) [Compound 65] yielded an Emax of 30%.
Molecule `CN(C)C=Nc1ccc2c(c1)[C@@H](NC(=O)c1cc3ccccc3s1)[C@H](O)C2` (relative stereo) [Compound 69] has an Emax of 14%.
For `Cc1cccc(C(=O)N[C@H]2c3cc(N=CN4CCCC4)ccc3C[C@@H]2O)c1` (relative stereo) [Compound 37], the Emax was 76%.
For `O=C(N[C@@H]1c2cc(N=CN3CCCC3)ccc2C[C@H]1O)c1c(Cl)cccc1Cl` (relative stereo) [Compound 46], the Emax was 154%.
For `O=C(N[C@@H]1c2cc(N=CN3CCCCC3)ccc2C[C@H]1O)c1cc(F)cc(F)c1` (relative stereo) [Compound 98], the Emax was 73%.
`CCc1ccc(C(=O)N[C@@H]2c3cc(N=CN(C)C)ccc3C[C@H]2O)cc1` (relative stereo) [Compound 67] gave an Emax of 7%.
With `N#Cc1ccc(C(=O)N[C@H]2c3cc(N=CN4CCCC4)ccc3C[C@@H]2O)cc1` (relative stereo) [Compound 13] the Emax was < 20%.
With `CCCCc1ccc(C(=O)N[C@@H]2c3cc(N=CN4CCCC4)ccc3C[C@H]2O)cc1` (relative stereo) [Compound 45] the Emax was < 20%.
Work on `CN(C)C=Nc1ccc2c(c1)C(NS(=O)(=O)c1ccc(Cl)c(Cl)c1)C(O)C2` (stereo not drawn) [Compound 72] yielded an Emax of 4%.
`CN(C)C=Nc1ccc2c(c1)[C@@H](NC(=O)c1cc(F)cc(C(F)(F)F)c1)[C@H](O)C2` (relative stereo) [Compound 64] showed an Emax of 52%.
With `O=C(N[C@H]1c2cc(N=CN3CCCC3)ccc2C[C@@H]1O)c1cccnc1Cl` (relative stereo) [Compound 12] the Emax was 26%.
Molecule `CN(C)C=Nc1ccc2c(c1)[C@@H](NC(=O)c1cccnc1Cl)[C@H](O)C2` (relative stereo) [Compound 73] has an Emax of 11%.
For `O=C(N[C@H]1c2cc(N=CN3CCCC3)ccc2C[C@@H]1O)c1cccc([N+](=O)[O-])c1` (relative stereo) [Compound 25], the Emax was 43%.
With `O=C(N[C@@H]1c2cc(N=CN3CCCC3)ccc2C[C@H]1O)c1cc(F)c(F)c(F)c1F` (relative stereo) [Compound 40] the Emax was 96%.
For `O=C(N[C@H]1c2cc(N=CN3CCCC3)ccc2C[C@@H]1O)C1CCCCC1` (relative stereo) [Compound 11], the Emax was 34%.
With `CCCc1ccc(C(=O)N[C@H]2c3cc(N=CN4CCCC4)ccc3C[C@@H]2O)cc1` (relative stereo) [Compound 26] the Emax was < 20%.
In the case of `N#Cc1cccc(C(=O)N[C@H]2c3cc(N=CN4CCCC4)ccc3C[C@@H]2O)c1` (relative stereo) [Compound 38], the Emax is reported as < 20%.
For `CCCCc1ccc(C(=O)N[C@@H]2c3cc(N=CN(C)C)ccc3C[C@H]2O)cc1` (relative stereo) [Compound 70], the Emax was 18%.
For `O=C(N[C@H]1c2cc(N=CN3CCCC3)ccc2C[C@@H]1O)c1cc(F)ccc1F` (relative stereo) [Compound 32], the Emax was < 20%.
In the case of `O=C(N[C@H]1c2cc(N=CN3CCCC3)ccc2C[C@@H]1O)c1cc(F)cc(F)c1` (relative stereo) [Compound 23], the Emax is reported as < 20%.
In the case of `CN(C)C=Nc1ccc2c(c1)[C@@H](NC(=O)c1cccc(C#N)c1)[C@H](O)C2` (relative stereo) [Compound 61], the Emax is reported as 39%.
For `O=C(N[C@H]1c2cc(N=CN3CCCC3)ccc2C[C@@H]1O)C(F)(F)F` (relative stereo) [Compound 19], the Emax was < 20%.
For `O=C(N[C@@H]1c2cc(N=CN3CCCC3)ccc2C[C@H]1O)C1CCC1` (relative stereo) [Compound 41], the Emax was < 20%.
In the case of `O=C(N[C@@H]1c2cc(N=CN3CCCCC3)ccc2C[C@H]1O)c1cccc(Cl)c1Cl` (relative stereo) [Compound 88], the Emax is reported as 52%.
`CC(=Nc1ccc2c(c1)[C@@H](NC(=O)c1ccc(Cl)c(Cl)c1)[C@H](O)C2)N(C)C` (relative stereo) [Compound 76] showed an Emax of 130%.
In the case of `O=C(N[C@H]1c2cc(N=CN3CCCC3)ccc2C[C@@H]1O)c1ccc2ccccc2c1` (relative stereo) [Compound 17], the Emax is reported as 56%.
`CN(C)C=Nc1ccc2c(c1)[C@@H](NC(=O)c1cccc3ccccc13)[C@H](O)C2` (relative stereo) [Compound 71] showed an Emax of 95%.
Molecule `CN(C)C=Nc1ccc2c(c1)[C@@H](NC(=O)c1ccccc1)[C@H](O)C2` (relative stereo) [Compound 57] has an Emax of 5%.
In the case of `Cc1cc(C)c(C(=O)N[C@H]2c3cc(N=CN4CCCC4)ccc3C[C@@H]2O)c(C)c1` (relative stereo) [Compound 27], the Emax is reported as < 20%.
In the case of `COc1cc(OC)cc(C(=O)N[C@H]2c3cc(N=CN4CCCC4)ccc3C[C@@H]2O)c1` (relative stereo) [Compound 36], the Emax is reported as < 20%.
In the case of `O=C(N[C@H]1c2cc(N=CN3CCCC3)ccc2C[C@@H]1O)c1ccc(F)c(F)c1F` (relative stereo) [Compound 33], the Emax is reported as 45%.
`CN(C)C=Nc1ccc2c(c1)[C@@H](NC(=O)c1ccc(Cl)nc1)[C@H](O)C2` (relative stereo) [Compound 74] showed an Emax of 8%.
`O=C(N[C@@H]1c2cc(N=CN3CCCCC3)ccc2C[C@H]1O)c1cc(Cl)cc(Cl)c1` (relative stereo) [Compound 97] showed an Emax of 36%.
`O=C(N[C@@H]1c2cc(N=CN3CCCCC3)ccc2C[C@H]1O)c1ccc(Cl)c(Cl)c1` (relative stereo) [Compound 77] showed an Emax of 214%.
Molecule `COc1cccc(C(=O)N[C@H]2c3cc(N=CN4CCCC4)ccc3C[C@@H]2O)c1` (relative stereo) [Compound 34] has an Emax of 45%.
`CN(C)C=Nc1ccc2c(c1)[C@@H](NC(=O)c1ccc(C(F)(F)F)cc1)[C@H](O)C2` (relative stereo) [Compound 75] gave an Emax of 6%.
In the case of `CCCCOc1ccc(C(=O)N[C@@H]2c3cc(N=CN(C)C)ccc3C[C@H]2O)cc1` (relative stereo) [Compound 59], the Emax is reported as 22%.
Molecule `O=C(N[C@H]1c2cc(N=CN3CCCC3)ccc2C[C@@H]1O)c1ccc(C(F)(F)F)cc1` (relative stereo) [Compound 18] has an Emax of 61%.
Molecule `O=C(N[C@H]1c2cc(N=CN3CCCC3)ccc2C[C@@H]1O)c1ccc([N+](=O)[O-])cc1Cl` (relative stereo) [Compound 20] has an Emax of 69%.
`O=C(N[C@H]1c2cc(N=CN3CCCC3)ccc2C[C@@H]1O)c1cccc2ccccc12` (relative stereo) [Compound 15] showed an Emax of 76%.

Test system: M1 -site muscarinic receptors
Assay: not given
Settings: M1 -site versus M2 -sites; cited from earlier work
For `CN1CCN(CC(=O)N2c3ccccc3C(=O)Nc3cccnc32)CC1` [Pirenzepine, pirenzepine, [N-methyl-^3 H]], the “selectivity of pirenzepine binding for muscarinic receptor subtype” value is given as “selective for M1 -sites”.

Reference: US6211364A, “Process for preparing indane-like compounds” (Eli Lilly and Company, priority 1999, dated 2001)
